The text below walks through data of patent US10588316B2 (priority 2015, dated 2020).

Assay [1] deals with Fusarium graminearum and Fusarium asiaticum. The experiment in a line: organism not typed. The following applies: tebuconazole 0.078 μg/mL; sensitive and fungicide-resistant strains. Format: cell-based.
For the next assay, the system named is Fusarium graminearum. Kind of assay: microbe, parasite or virus in culture. The format is cell-based.

As to Tebuconazole, in assay [1], the “inhibitory effect on hyphal growth” value is given as about 50%. Moreover, the “Median Effective Concentration (EC50) for Growth Inhibition” value with Fusarium graminearum (F.g carbendazim-resistant strains) turned out to be 0.101 µg/mL; in the assay with Fusarium graminearum (F.g phenamacril-resistant strains) it was 0.085 µg/mL.
